# Assay results published in patent US20010006961A1, “METHOD FOR IMPROVING FRUIT YIELDS FROM BANANA PLANTS” (priority 1995, published 2001).
# Assays:
# [1] = system: banana plants; assay: In vivo test on a banana plantation on a soil of different nature, treatment carried out with an aeroplane (Example 2); settings: applied by aeroplane, control 37.4 kg
# Description: Example 2: In vivo test of a composition comprising fosetyl-Al on a banana plantation:
# Example 1 is repeated, a plantation situated on a soil of different nature being treated and the treatment being carried out with an aeroplane. The fosetyl-Al doses applied are shown in the table below, along with the average banana bunch weights obtained.
# [2] = system: banana plants; assay: In vivo test of application by injection into the growing pseudostem (Example 3); settings: 6 kg/ha (3 g per plant) injected into pseudostem 1 month before flowering; harvest 4 months later; control 28.3 kg
# Method: Example 3: In vivo test of the application of a composition comprising fosetyl-Al by injection into the growing pseudostem:
# (§1) The test is carried out on a plantation of banana plants which have reached a stage of regular fruit production. This plantation is furthermore treated periodically throughout the duration of the test by means of a conventional preventive treatment against various fungal diseases, as well as against harmful insects and nematodes, which treatment is known to have no effect of the type of those observed below with fosetyl-Al.
# Fosetyl-Al is injected into the pseudostem of the growing banana plants, in the proportion of 6 kg/ha (i.e. 3 g of fosetyl-Al per plant), 1 month before flowering.
# The fruits are harvested 4 months later. The average weight of the bunch of bananas is 31.4 kg. The average weight of a bunch of bananas corresponding to the control test (untreated banana plants) is 28.3 kg.
# [3] = system: banana plants; assay: In vivo test on a banana plantation, fosetyl-Al wettable powder applied with a knapsack sprayer (Example 1)
# Method: Example 1: In viva test of a composition comprising fosetyl-Al on a banana plantation:
# as §1, with “protective” for “preventive”
# The duration of the test is 2 years.
# At the beginning of the first year, treatment with fosetyl-Al is carried out. For this, use is made of a wettable powder formulation of fosetyl-Al diluted in water before use, which is applied by means of a knapsack sprayer. The application dose is 6.4 kg of fosetyl-Al per hectare. This application of fosetyl-Al is repeated every 3 months throughout the duration of the test.
# The average weight of a bunch of bananas harvested per plant is measured. The mean value of this weight, during the 2nd year of the test, is equal to 39.8 kg.
# In comparison, a control test was carried out, in which there was no application of fosetyl-Al, the protocol otherwise being identical. This test gave 38.4 kg as the average value of the weight of a bunch of bananas harvested per plant, measured under the same conditions as above.
smiles,measurement,setting,value
"CCO[PH](=O)[O-].CCO[PH](=O)[O-].CCO[PH](=O)[O-].[Al+3] [fosetyl-Al, aluminium tris(O-ethyl phosphonate)]",Average weight of a bunch,[1]; fosetyl-Al dose 3.2 kg/ha,38.9 kg
same,Average weight of a bunch,[1]; fosetyl-Al dose 6.4 kg/ha,39.7 kg
same,average weight of the bunch of bananas,[2],31.4 kg
same,average weight of a bunch of bananas harvested per plant,"[3]; 6.4 kg fosetyl-Al per hectare, sprayed every 3 months, mean value during 2nd year of the test, control 38.4 kg",39.8 kg
same,"difference in average bunch weight versus control, relative value","[3]; 6.4 kg/ha every 3 months, 39.8 kg vs control 38.4 kg",5%
same,additional amount of fruit,[3]; in the case where the yield of the banana plantation is 40 tonnes/hectare of bananas,~2 tonnes
